Measured values published in patent publication US20210255184A1, “Biosensor Device and Methods” (The New Zealand Institute for Plant and Food Research …, priority 2018, published 2021).
pEC50: −log10 of the molar value.

Legend:
AgOr65/Orco = conditions: cited from earlier work
MsiOR1/Orco = conditions: ref 48; * estimated visually from graph; cited from earlier work
AgOr48/Orco = conditions: cited from earlier work
ECB (Z) OR3/Orco = conditions: cited from earlier work
BmOR1/Orco = conditions: ref 14; * estimated visually from graph; cited from earlier work
DiOR1/Orco = conditions: ref 48; * estimated visually from graph; cited from earlier work
OscaOR1/Orco = conditions: ref 47; * estimated visually from graph; cited from earlier work
DOr85b/Orco = molecular target: T1, DOr85b/Orco (Drosophila melanogaster, UniProt Q9VHQ6); conditions: cited from earlier work
T1 construct: host or cells: Xenopus oocytes
T1 sequence (Q9VHQ6 1-389): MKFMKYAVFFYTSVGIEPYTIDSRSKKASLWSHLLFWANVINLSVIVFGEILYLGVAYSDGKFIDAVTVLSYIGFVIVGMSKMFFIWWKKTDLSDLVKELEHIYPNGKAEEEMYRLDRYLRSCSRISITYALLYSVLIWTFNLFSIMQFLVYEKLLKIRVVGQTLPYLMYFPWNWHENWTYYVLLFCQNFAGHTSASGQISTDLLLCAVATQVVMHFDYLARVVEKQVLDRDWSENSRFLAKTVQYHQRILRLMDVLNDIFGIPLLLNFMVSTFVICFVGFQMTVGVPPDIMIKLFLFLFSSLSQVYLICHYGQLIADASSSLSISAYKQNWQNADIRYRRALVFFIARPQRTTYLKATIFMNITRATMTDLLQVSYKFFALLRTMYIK
T1 sequence (Q9VNB5 1-486 partner): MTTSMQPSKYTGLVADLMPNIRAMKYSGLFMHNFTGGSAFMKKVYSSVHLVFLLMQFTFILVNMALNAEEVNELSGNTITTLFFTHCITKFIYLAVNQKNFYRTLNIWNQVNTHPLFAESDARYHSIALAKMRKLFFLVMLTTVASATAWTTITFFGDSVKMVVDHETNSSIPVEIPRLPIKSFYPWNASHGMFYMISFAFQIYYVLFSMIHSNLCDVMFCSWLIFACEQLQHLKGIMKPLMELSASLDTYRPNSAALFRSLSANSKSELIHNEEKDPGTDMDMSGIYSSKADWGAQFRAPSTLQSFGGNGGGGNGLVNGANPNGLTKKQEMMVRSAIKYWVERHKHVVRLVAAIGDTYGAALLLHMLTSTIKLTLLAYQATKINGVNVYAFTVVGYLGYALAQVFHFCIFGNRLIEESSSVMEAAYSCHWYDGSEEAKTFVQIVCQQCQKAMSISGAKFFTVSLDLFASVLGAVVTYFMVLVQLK

Or35a/Orco = molecular target: T2, Or35a/Orco (Drosophila melanogaster, UniProt Q9V3Q2); assay: EIS sensor, Or35a/Orco liposomes on gold electrode; format: biochemical
T2 construct: his-tag; made in house; host or cells: baculovirus-infected Sf9 cells
T2 sequence (Q9V3Q2 1-409): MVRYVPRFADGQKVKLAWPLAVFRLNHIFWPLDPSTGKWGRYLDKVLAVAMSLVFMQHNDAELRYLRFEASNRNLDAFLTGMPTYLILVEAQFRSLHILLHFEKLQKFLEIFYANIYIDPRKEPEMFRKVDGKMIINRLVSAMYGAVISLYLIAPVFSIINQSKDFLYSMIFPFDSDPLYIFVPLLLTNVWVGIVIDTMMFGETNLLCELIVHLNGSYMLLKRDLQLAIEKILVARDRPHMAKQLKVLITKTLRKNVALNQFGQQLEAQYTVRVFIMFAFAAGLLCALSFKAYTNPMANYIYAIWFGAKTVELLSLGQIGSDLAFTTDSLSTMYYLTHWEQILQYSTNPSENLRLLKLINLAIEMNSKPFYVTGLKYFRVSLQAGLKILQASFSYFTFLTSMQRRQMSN
T2 sequence (Q9VNB5 1-486 partner): T1 sequence (Q9VNB5 1-486 partner)
Description: (§1) PBS (pH=7.4) was used as an electrolyte to conduct electrochemical measurements. PBS buffer was degassed for about 30 minutes prior to electrochemical measurements. Odorant solutions of concentration ranging from 1 aM to 1 μM were prepared by sequential dilution in PBS solution containing 1% DMSO. OR immobilized electrodes were incubated in relevant odorant solution for ˜30 minutes each and washed gently with PBS before EIS measurements.
EIS measurements were done in a 3 electrode cell containing Ag/AgCl (3 M NaCl, 0.209 V vs. SHE) reference electrode, coiled platinum wire as a counter electrode and the gold disk as a working electrode at a fixed voltage of −0.7 using PalmSens potentiostat. Degassed PBS was used as an electrolyte. […]
(§2) Prior to use, 1 mg liposomes (500 μl at 2 mg/ml) were defrosted on ice and then destabilized by incubating with 0.2% CHAPS for 15 min at room temperature. […] All Or35a/Orco integrated liposomes samples were analysed by Western blot before being aliquoted and stored at −80° C. Integration of Or35a/Orco into liposomes was assessed by density gradient ultracentrifugation (DGU) using Accudenz (Accurate Chemical & Scientific Corporation, USA). […]

[1] = EIS sensor, empty liposomes (specificity control); format: biochemical; conditions: empty liposomes without receptor
Description: PBS solution was prepared by immersing one tablet of PBS in 200 ml of milli-Q water (according to manufacturers instructions) and filtered using 0.2-μm syringe filter. The pH of the prepared buffer solution was measured with a pH meter. OrX liposomes or OrX/Orco liposomes were diluted 100 fold in PBS buffer solution (pH=7.4) and the COOH-activated electrodes were incubated in that buffer solution at room temperature for one hour. Then, the electrodes were washed extensively with PBS buffer solution to wash out any unbound liposomes.
as §1
(§3) EIS measurements were done in a 3 electrode cell containing Ag/AgCl (3 M NaCl, 0.209 V vs. SHE) reference electrode, coiled platinum wire as a counter electrode and the gold disk as a working electrode at a fixed voltage of −0.7 using PalmSens potentiostat. Degassed PBS was used as an electrolyte.
EIS measurements were performed on gold electrodes functionalised with OrX liposomes (either Or10a or Or22a), OrX/Orco liposomes, or empty liposomes prior to and after target ligand or control ligand incubation with increasing concentrations (1 aM to 100 μM). Dose response curves were obtained by defining sensor response as −(ΔRp/R^op) versus log[C(Ligand)]. FIG. 4a presents the EIS response in terms of Nyquist plot for the Or10a liposome functionalized sensors when exposed to a solution containing one of the known target ligands of Or10a, methyl salicylate, at various concentrations. […] The dose response curve (FIG. 4b) was obtained by plotting the change in polarization resistance −(ΔRp/R^op) versus log[conc(Ligand)], as the sensor response. […]

Or35a = molecular target: T3, Or35a (Drosophila melanogaster, UniProt Q9V3Q2); assay: EIS sensor, Or35a liposomes on gold electrode; format: biochemical
T3 construct: his-tag; made in house; host or cells: baculovirus-infected Sf9 cells
T3 sequence (Q9V3Q2 1-409): T2 sequence (Q9V3Q2 1-409)
Description: as §1, §3
EIS measurements were performed on gold electrodes functionalised with OrX liposomes (either Or10a or Or22a), OrX/Orco liposomes, or empty liposomes prior to and after target ligand or control ligand incubation with increasing concentrations (1 aM to 100 μM). Dose response curves were obtained by defining sensor response as −(ΔRp/R^op) versus log[C(Ligand)]. FIG. 4a presents the EIS response in terms of Nyquist plot for the Or10a liposome functionalized sensors when exposed to a solution containing one of the known target ligands of Or10a, methyl salicylate, at various concentrations. […] The dose response curve (FIG. 4b) was obtained by plotting the change in polarization resistance −(ΔRp/R^op) versus log[conc(Ligand)], as the sensor response. Here, Rp is the polarization resistance after Or10a liposome-target interaction and R^op is the polarization resistance before Or10a liposome-target interaction.
as §2

Or71a/Orco = molecular target: T4, Or71a/Orco (Drosophila melanogaster, UniProt Q9VUK5); assay: Droplet interface bilayer ion channel recording, Or71a/Orco; format: biochemical; conditions: DIB, 10 μM ligand, holding potential 0 mV and −100 mV
T4 construct: his-tag; made in house; host or cells: baculovirus-infected Sf9 cells
T4 sequence (Q9VUK5 1-378): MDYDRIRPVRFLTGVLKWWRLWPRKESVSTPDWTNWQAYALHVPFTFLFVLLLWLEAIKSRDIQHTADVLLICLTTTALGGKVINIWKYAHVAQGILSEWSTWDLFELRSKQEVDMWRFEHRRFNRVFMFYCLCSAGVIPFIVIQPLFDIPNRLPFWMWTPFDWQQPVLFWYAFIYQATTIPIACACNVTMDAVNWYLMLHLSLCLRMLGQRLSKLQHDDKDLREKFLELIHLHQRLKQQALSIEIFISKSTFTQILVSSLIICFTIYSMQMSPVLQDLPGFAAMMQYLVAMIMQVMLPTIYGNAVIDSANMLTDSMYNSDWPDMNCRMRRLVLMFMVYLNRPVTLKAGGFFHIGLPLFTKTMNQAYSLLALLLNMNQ
T4 sequence (Q9VNB5 1-486 partner): T1 sequence (Q9VNB5 1-486 partner)
Description: Bilayers were formed between two droplets formed within a PMMA chamber filled with 1 mg/ml DPhPC in undecane and AR20 silicone oil (1:1 ratio). The first step in this process was to deposit a 50 nl droplet onto the stationary silver electrode positioned at the base of the well; this droplet consisted of an aqueous solution containing 300 mM NaCl, 10 mM HEPES (pH 7.4), containing the odorant receptor proteins in proteoliposomes (at a 1:20 dilution from the proteoliposome preparation), […] The second droplet was mounted onto a second silver electrode which was held in the oil and lipid mixture using a YOU-3 manipulator (Narishige, Japan). […] Once the droplets were in contact a bilayer formed spontaneously within 1 minute (as determined by visual assessment and an increase in the bilayer capacitance as measured with a capacitance voltage protocol using the Pico2 amplifier). Insertion of an active channel was determined by a change in current while clamping the voltage at 50 mV. […]
Currents were recorded with a Pico2 or an eONE-HS amplifier (Tecella, USA and Elements, Italy, respectively) with built-in digitizers, operating in gap-free acquisition mode at a sampling frequency of 20 kHz, and using a 0.8 or 1.5 kHz low pass filter. […]
Data were analysed using ANA (Dr Pusch, Genoa), EDR (Elements, Italy) and WinWCP (Dr Dempster, University of Strathclyde). […]

BmOR3/Orco = conditions: ref 14; * estimated visually from graph; cited from earlier work
PxOR1/Orco = conditions: ref 14; * estimated visually from graph; cited from earlier work
[2] = EIS dose response, ligand 1 aM to 100 μM

## C=CCc1ccc(O)c(OC)c1 [eugenol]
AgOr65/Orco; log value
  Ec50 (given as Log): Log = −6.54
AgOr65/Orco; ref 43, * estimated visually from graph
  Sensitivity limit (given as Log): Log = −7*

## CCCC/C=C\CCCCCCCCCCOC(C)=O [Z11-16:Ac]
MsiOR1/Orco
  Sensitivity limit: 10^−7 M*

## CCCCCCCCC1CCC(=O)O1 (stereo not shown) [g-dodecalactone]
AgOr48/Orco; log value
  Ec50 (given as Log): Log = −7.01
AgOr48/Orco; ref 45, * estimated visually from graph
  Sensitivity limit (given as Log): Log = −8*

## CC/C=C/CCCCCCCCCCOC(C)=O [E11 pheromone]
ECB (Z) OR3/Orco
  Sensitivity limit: 10^−9 M

## CCC/C=C\C=C\CCCCCCCCCO [Bonnbykol]
BmOR1/Orco
  Sensitivity limit: 10^−8-10^−6 M*

## CCCC/C=C/CCCCCCCCCC=O [Ell-16:Ald]
DiOR1/Orco
  Sensitivity limit: 10^−7 M*

## CC/C=C/CCCCCCCCCCO [E11-14:OH]
OscaOR1/Orco
  Sensitivity limit: 10^−7 M*

## CCCCCC(C)=O [2-heptanone]
DOr85b/Orco
  pEC50: 4.34
DOr85b/Orco; ref 14, * estimated visually from graph
  Sensitivity limit: 10^−8-10^−6 M*

## CCC/C=C/C=O [E2-hexenal]
Or35a/Orco; [2]
  limit of detection: 0.1 fM
Or35a/Orco; Table 3
  Detection Range: 10^−16-10^−6 M
[1]
  sensor response to ligand: negligible responses
Or35a; [2]
  limit of detection (LOD): 10 fM
Or35a; Table 3
  Detection Range: 10^−14 to 10^−6 M

## CCc1ccc(OC)c(O)c1 [4-ethyl guaiacol]
Or71a/Orco
  ion channel activity: active ligand gated ion channel

## CCC/C=C\C=C\CCCCCCCCC=O [Bonnbykal]
BmOR3/Orco
  Sensitivity limit: 10^−8-10^−6 M*

## CCCC/C=C\CCCCCCCCCC=O [Z11-16:Ald]
PxOR1/Orco
  Sensitivity limit: 10^−8-10^−6 M*
